“And” between values parts separate entries of the source, which are not always exact repeats. Equal values may be shown once.
Details: Fluid (supercritical or subcritical phases); for mass density: Buoyancy - hydrostatic balance with magnetic suspension - one sinker; for viscosity: vibrating wire

CCC [propane]
Details | mass density | viscosity
273.15 K, 40.93 kPa | 0.80164 kg/m3 | 0.00744 mPa·s
273.15 K, 51.05 kPa | 1.002 kg/m3 | 0.007443 mPa·s
273.15 K, 100.76 kPa | 1.999 kg/m3 | 0.007443 mPa·s
273.15 K, 149.62 kPa | 3.0011 kg/m3 | 0.007435 mPa·s
273.15 K, 196.97 kPa | 3.9945 kg/m3 | 0.007431 mPa·s
273.15 K, 243.87 kPa | 5.0016 kg/m3 | 0.007424 mPa·s
273.15 K, 289.3 kPa | 6.0007 kg/m3 | 0.007419 mPa·s
273.15 K, 333.56 kPa | 6.9977 kg/m3 | 0.007415 mPa·s
273.15 K, 376.67 kPa | 7.9933 kg/m3 | 0.00741 mPa·s
273.15 K, 420.03 kPa | 9.0207 kg/m3 | 0.007406 mPa·s
273.15 K, 459.55 kPa | 9.9815 kg/m3 | 0.007404 mPa·s
273.15 K, 459.58 kPa | 9.9822 kg/m3 | 0.007403 mPa·s
298.15 K, 44.7 kPa | 0.80087 kg/m3 | 0.008128 mPa·s
298.15 K, 55.55 kPa | 0.99693 kg/m3 | 0.008133 mPa·s
298.15 K, 110.39 kPa | 1.9989 kg/m3 | 0.00813 mPa·s
298.15 K, 164.09 kPa | 2.9981 kg/m3 | 0.008127 mPa·s
298.15 K, 164.66 kPa | 3.0089 kg/m3 | 0.008126 mPa·s
298.15 K, 217.05 kPa | 4.0022 kg/m3 | 0.008127 mPa·s
298.15 K, 217.09 kPa | 4.0029 kg/m3 | 0.008128 mPa·s
298.15 K, 268.78 kPa | 5.0013 kg/m3 | 0.008125 mPa·s
298.15 K, 318.03 kPa | 5.9708 kg/m3 | 0.008125 mPa·s
298.15 K, 369.4 kPa | 7.0017 kg/m3 | 0.00813 mPa·s
298.15 K, 418.44 kPa | 8.0059 kg/m3 | 0.008126 mPa·s
298.15 K, 464.73 kPa | 8.9725 kg/m3 | 0.008128 mPa·s
298.15 K, 498.81 kPa | 9.6967 kg/m3 | 0.008126 mPa·s
298.15 K, 513.59 kPa | 10.014 kg/m3 | 0.008121 mPa·s
298.15 K, 559.93 kPa | 11.023 kg/m3 | 0.008129 mPa·s
298.15 K, 600.75 kPa | 11.93 kg/m3 | 0.008132 mPa·s
298.15 K, 604 kPa | 12.003 kg/m3 | 0.008127 mPa·s
298.15 K, 646.36 kPa | 12.965 kg/m3 | 0.008128 mPa·s and 0.00813 mPa·s
298.15 K, 691.04 kPa | 14.002 kg/m3 | 0.008132 mPa·s
298.15 K, 692.19 kPa | 14.029 kg/m3 | 0.008133 mPa·s
298.15 K, 783.49 kPa | 16.228 kg/m3 | 0.008144 mPa·s
298.15 K, 849.03 kPa | 17.879 kg/m3 | 0.00815 mPa·s
298.15 K, 875.16 kPa | 18.556 kg/m3 | 0.008155 mPa·s
298.15 K, 878.68 kPa | 18.648 kg/m3 | 0.008158 mPa·s
366.15 K, 68.97 kPa | 1.0047 kg/m3 | 0.009907 mPa·s
366.15 K, 136.86 kPa | 2.0051 kg/m3 | 0.009923 mPa·s
366.15 K, 270.35 kPa | 4.0067 kg/m3 | 0.009941 mPa·s
366.15 K, 400.53 kPa | 6.0046 kg/m3 | 0.009956 mPa·s
366.15 K, 527.04 kPa | 7.9924 kg/m3 | 0.009974 mPa·s
366.15 K, 649.96 kPa | 9.9702 kg/m3 | 0.009996 mPa·s
366.15 K, 772.49 kPa | 11.99 kg/m3 | 0.01002 mPa·s
366.15 K, 897.82 kPa | 14.109 kg/m3 | 0.01005 mPa·s
366.15 K, 1004.8 kPa | 15.963 kg/m3 | 0.01007 mPa·s
366.15 K, 1119.8 kPa | 18.006 kg/m3 | 0.0101 mPa·s
366.15 K, 1222.3 kPa | 19.872 kg/m3 | 0.01013 mPa·s
366.15 K, 1738.7 kPa | 30.044 kg/m3 | 0.01032 mPa·s
366.15 K, 2181.8 kPa | 40.086 kg/m3 | 0.01055 mPa·s
366.15 K, 2559.1 kPa | 50.015 kg/m3 | 0.01083 mPa·s
366.15 K, 2883 kPa | 60.029 kg/m3 | 0.01114 mPa·s
366.15 K, 3154.4 kPa | 70.033 kg/m3 | 0.01149 mPa·s
366.15 K, 3381.1 kPa | 80.175 kg/m3 | 0.0119 mPa·s
366.15 K, 3559.5 kPa | 90.05 kg/m3 | 0.01232 mPa·s
366.15 K, 3704.1 kPa | 100.205 kg/m3 | 0.01282 mPa·s
366.15 K, 3704.9 kPa | 100.267 kg/m3 | 0.01282 mPa·s
373.15 K, 70 kPa | 1.0004 kg/m3 | 0.01008 mPa·s
373.15 K, 139.24 kPa | 2.0008 kg/m3 | 0.0101 mPa·s
373.15 K, 275.58 kPa | 4.0037 kg/m3 | 0.01012 mPa·s
373.15 K, 408.76 kPa | 6.0045 kg/m3 | 0.01014 mPa·s
373.15 K, 538.6 kPa | 7.9996 kg/m3 | 0.01017 mPa·s
373.15 K, 666.93 kPa | 10.017 kg/m3 | 0.0102 mPa·s
373.15 K, 733.66 kPa | 11.085 kg/m3 | 0.01021 mPa·s
373.15 K, 917.57 kPa | 14.099 kg/m3 | 0.01026 mPa·s
373.15 K, 1023.3 kPa | 15.881 kg/m3 | 0.01029 mPa·s
373.15 K, 1147.8 kPa | 18.031 kg/m3 | 0.01033 mPa·s
373.15 K, 1248 kPa | 19.801 kg/m3 | 0.01036 mPa·s
373.15 K, 1781.8 kPa | 29.954 kg/m3 | 0.01058 mPa·s
373.15 K, 1781.9 kPa | 29.957 kg/m3 | 0.01058 mPa·s
373.15 K, 2244.2 kPa | 39.982 kg/m3 | 0.01083 mPa·s
373.15 K, 2244.5 kPa | 39.99 kg/m3 | 0.01084 mPa·s
373.15 K, 2640.8 kPa | 49.856 kg/m3 | 0.01113 mPa·s
373.15 K, 2640.9 kPa | 49.858 kg/m3 | 0.01113 mPa·s
373.15 K, 2984.3 kPa | 59.751 kg/m3 | 0.01146 mPa·s
373.15 K, 2984.4 kPa | 59.753 kg/m3 | 0.01146 mPa·s
373.15 K, 3288.7 kPa | 70.03 kg/m3 | 0.01186 mPa·s
373.15 K, 3289 kPa | 70.041 kg/m3 | 0.01186 mPa·s
373.15 K, 3531.3 kPa | 79.736 kg/m3 | 0.01227 mPa·s
373.15 K, 3531.6 kPa | 79.746 kg/m3 | 0.01227 mPa·s
373.15 K, 3739.8 kPa | 89.698 kg/m3 | 0.01273 mPa·s
373.15 K, 3740.2 kPa | 89.72 kg/m3 | 0.01273 mPa·s
373.15 K, 3909.1 kPa | 99.505 kg/m3 | 0.01323 mPa·s
373.15 K, 3909.3 kPa | 99.518 kg/m3 | 0.01323 mPa·s
373.15 K, 4152.5 kPa | 118.628 kg/m3 | 0.01431 mPa·s
373.15 K, 4152.6 kPa | 118.636 kg/m3 | 0.01431 mPa·s
373.15 K, 4314.6 kPa | 139.152 kg/m3 and 139.148 kg/m3 | 0.01561 mPa·s
373.15 K, 4400.6 kPa | 157.919 kg/m3 | 0.01691 mPa·s
373.15 K, 4400.7 kPa | 157.947 kg/m3 | 0.01692 mPa·s
373.15 K, 4432.9 kPa | 169.072 kg/m3 and 169.051 kg/m3 and 169.087 kg/m3 | 0.01772 mPa·s and 0.01773 mPa·s
373.15 K, 4458.2 kPa | 181.456 kg/m3 and 181.487 kg/m3 | 0.01876 mPa·s
373.15 K, 4477.3 kPa | 194.68 kg/m3 | 0.02002 mPa·s
373.15 K, 4477.4 kPa | 194.74 kg/m3 | 0.02003 mPa·s
373.15 K, 4491.9 kPa | 207.584 kg/m3 | 0.02135 mPa·s
373.15 K, 4492 kPa | 207.643 kg/m3 | 0.02135 mPa·s
373.15 K, 4502.7 kPa | 218.095 kg/m3 and 218.113 kg/m3 | 0.02247 mPa·s
373.15 K, 4512.2 kPa | 227.171 kg/m3 and 227.14 kg/m3 | 0.02347 mPa·s
373.15 K, 4515 kPa | 229.692 kg/m3 | 0.02376 mPa·s

Source: the NIST ThermoML archive (doi:10.1021/je101178u)
